Measured values: PubChem BioAssay (NCI)
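Method: 48-hour compound exposure of cells in 96-well plates, five concentrations, linear interpolation of endpoints. TGI marks complete inhibition of growth.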 Where a SMILES comes first, the peptide text is derived from it. [ ]: non-standard residue; d: D form. The star is where a group is joined. AllylGly = C=CC[CH](N)C(=O)O; Boc = CC(C)(C)OC(=O)*; OtBu = CC(C)(C)O*

Tests used:
Assay in all cases: inhibition of tumour cell growth, NCI panel, 48 h
MDA-MB-435 = test system: MDA-MB-435
SK-MEL-28 melanoma = test system: SK-MEL-28 melanoma
MDA-MB-231 breast = test system: MDA-MB-231 breast
A549 NSCLC = test system: A549 NSCLC
SNB-19 CNS = test system: SNB-19 CNS
NCI/ADR-RES ovarian = test system: NCI/ADR-RES ovarian
NCI-H226 lung = test system: NCI-H226 lung
M14 melanoma = test system: M14 melanoma
SR leukemia = test system: SR leukemia
SW-620 colon = test system: SW-620 colon
SF-295 CNS = test system: SF-295 CNS
IGROV1 ovarian = test system: IGROV1 ovarian
SF-268 CNS = test system: SF-268 CNS
OVCAR-5 ovarian = test system: OVCAR-5 ovarian
UACC-257 melanoma = test system: UACC-257 melanoma
MDA-N = test system: MDA-N
SNB-75 CNS = test system: SNB-75 CNS
UACC-62 melanoma = test system: UACC-62 melanoma
SK-MEL-5 melanoma = test system: SK-MEL-5 melanoma
DU-145 prostate = test system: DU-145 prostate
HCC-2998 colon = test system: HCC-2998 colon
CAKI-1 renal = test system: CAKI-1 renal
HCT-15 colon = test system: HCT-15 colon
T-47D breast = test system: T-47D breast
NCI-H460 lung = test system: NCI-H460 lung
HCT-116 colon = test system: HCT-116 colon
RPMI-8226 leukemia = test system: RPMI-8226 leukemia
NCI-H522 lung = test system: NCI-H522 lung
MOLT-4 leukemia = test system: MOLT-4 leukemia
OVCAR-8 ovarian = test system: OVCAR-8 ovarian
SK-OV-3 ovarian = test system: SK-OV-3 ovarian
RXF 393 renal = test system: RXF 393 renal
MALME-3M melanoma = test system: MALME-3M melanoma
HL-60(TB) leukemia = test system: HL-60(TB) leukemia
HT29 colon = test system: HT29 colon
UO-31 renal = test system: UO-31 renal
SF-539 CNS = test system: SF-539 CNS
LOX IMVI melanoma = test system: LOX IMVI melanoma
SK-MEL-2 melanoma = test system: SK-MEL-2 melanoma
CCRF-CEM leukemia = test system: CCRF-CEM leukemia
U251 CNS = test system: U251 CNS
BT-549 breast = test system: BT-549 breast
K-562 leukemia = test system: K-562 leukemia
OVCAR-3 ovarian = test system: OVCAR-3 ovarian
HOP-92 NSCLC = test system: HOP-92 NSCLC
OVCAR-4 ovarian = test system: OVCAR-4 ovarian
COLO 205 colon = test system: COLO 205 colon
HOP-62 NSCLC = test system: HOP-62 NSCLC
TK-10 renal = test system: TK-10 renal
PC-3 prostate = test system: PC-3 prostate
HS 578T breast = test system: HS 578T breast
786-0 renal = test system: 786-0 renal
NCI-H23 lung = test system: NCI-H23 lung
MCF7 breast = test system: MCF7 breast
KM12 colon = test system: KM12 colon
A498 renal = test system: A498 renal
ACHN renal = test system: ACHN renal
SN12C renal = test system: SN12C renal
EKVX NSCLC = test system: EKVX NSCLC

C=CCC(NC(=O)C(CC(=O)OC(C)(C)C)NC(=O)OC(C)(C)C)C(=O)OC (centres undefined) (Boc-Asp(OtBu)-[AllylGly]-OMe; configuration not given here)
TGI (MDA-MB-435): > 91.3 µM | TGI (SK-MEL-28 melanoma): > 100 µM | TGI (MDA-MB-231 breast): > 100 µM | TGI (A549 NSCLC): > 100 µM | TGI (SNB-19 CNS): > 100 µM | TGI (NCI/ADR-RES ovarian): > 100 µM | TGI (NCI-H226 lung): > 100 µM | TGI (M14 melanoma): 43 µM | TGI (SR leukemia): > 100 µM | TGI (SW-620 colon): > 100 µM | TGI (SF-295 CNS): > 100 µM | TGI (IGROV1 ovarian): > 100 µM | TGI (SF-268 CNS): > 100 µM | TGI (OVCAR-5 ovarian): > 100 µM | TGI (UACC-257 melanoma): 58.1 µM | TGI (MDA-N): > 79.7 µM | TGI (SNB-75 CNS): > 100 µM | TGI (UACC-62 melanoma): > 100 µM | TGI (SK-MEL-5 melanoma): > 57.3 µM | TGI (DU-145 prostate): > 100 µM | TGI (HCC-2998 colon): 61.3 µM | TGI (CAKI-1 renal): > 100 µM | TGI (HCT-15 colon): > 100 µM | TGI (T-47D breast): > 100 µM | TGI (NCI-H460 lung): > 100 µM | TGI (HCT-116 colon): > 100 µM | TGI (RPMI-8226 leukemia): > 84.6 µM | TGI (NCI-H522 lung): > 100 µM | TGI (MOLT-4 leukemia): > 91.6 µM | TGI (OVCAR-8 ovarian): 26.6 µM | TGI (SK-OV-3 ovarian): > 100 µM | TGI (RXF 393 renal): > 100 µM | TGI (MALME-3M melanoma): 3.04 µM | TGI (HL-60(TB) leukemia): 85.5 µM | TGI (HT29 colon): > 100 µM | TGI (UO-31 renal): > 100 µM | TGI (SF-539 CNS): > 100 µM | TGI (LOX IMVI melanoma): 41.7 µM | TGI (SK-MEL-2 melanoma): > 100 µM | TGI (CCRF-CEM leukemia): > 100 µM | TGI (U251 CNS): > 63 µM | TGI (BT-549 breast): > 100 µM | TGI (K-562 leukemia): > 100 µM | TGI (OVCAR-3 ovarian): 61.4 µM | TGI (HOP-92 NSCLC): > 100 µM | TGI (OVCAR-4 ovarian): > 100 µM | TGI (COLO 205 colon): 51.8 µM | TGI (HOP-62 NSCLC): > 100 µM | TGI (TK-10 renal): > 100 µM | TGI (PC-3 prostate): > 100 µM | TGI (HS 578T breast): > 100 µM | TGI (786-0 renal): > 100 µM | TGI (NCI-H23 lung): > 100 µM | TGI (MCF7 breast): > 100 µM | TGI (KM12 colon): > 100 µM | TGI (A498 renal): > 100 µM | TGI (ACHN renal): > 100 µM | TGI (SN12C renal): > 100 µM | TGI (EKVX NSCLC): > 100 µM

Cc1ccc(S(=O)(=O)NN=C2CCCCCCCCCCC2)cc1
TGI (MDA-MB-435): > 100 µM | TGI (SK-MEL-28 melanoma): > 100 µM | TGI (MDA-MB-231 breast): > 100 µM | TGI (A549 NSCLC): > 100 µM | TGI (SNB-19 CNS): > 100 µM | TGI (NCI/ADR-RES ovarian): > 100 µM | TGI (NCI-H226 lung): > 100 µM | TGI (M14 melanoma): > 100 µM | TGI (SR leukemia): > 100 µM | TGI (SW-620 colon): > 100 µM | TGI (SF-295 CNS): > 100 µM | TGI (IGROV1 ovarian): > 100 µM | TGI (SF-268 CNS): > 100 µM | TGI (OVCAR-5 ovarian): > 100 µM | TGI (UACC-257 melanoma): > 100 µM | TGI (MDA-N): > 100 µM | TGI (UACC-62 melanoma): > 100 µM | TGI (SK-MEL-5 melanoma): > 100 µM | TGI (DU-145 prostate): > 100 µM | TGI (HCC-2998 colon): > 100 µM | TGI (CAKI-1 renal): > 100 µM | TGI (HCT-15 colon): > 100 µM | TGI (T-47D breast): > 100 µM | TGI (NCI-H460 lung): > 100 µM | TGI (HCT-116 colon): > 100 µM | TGI (RPMI-8226 leukemia): > 100 µM | TGI (NCI-H522 lung): > 100 µM | TGI (MOLT-4 leukemia): > 100 µM | TGI (OVCAR-8 ovarian): > 100 µM | TGI (SK-OV-3 ovarian): > 100 µM | TGI (RXF 393 renal): > 100 µM | TGI (MALME-3M melanoma): > 100 µM | TGI (HL-60(TB) leukemia): > 100 µM | TGI (HT29 colon): > 100 µM | TGI (UO-31 renal): > 100 µM | TGI (SF-539 CNS): > 100 µM | TGI (LOX IMVI melanoma): > 100 µM | TGI (SK-MEL-2 melanoma): > 100 µM | TGI (CCRF-CEM leukemia): > 100 µM | TGI (U251 CNS): > 100 µM | TGI (BT-549 breast): > 100 µM | TGI (K-562 leukemia): > 100 µM | TGI (OVCAR-3 ovarian): > 100 µM | TGI (HOP-92 NSCLC): > 100 µM | TGI (OVCAR-4 ovarian): > 100 µM | TGI (COLO 205 colon): > 100 µM | TGI (HOP-62 NSCLC): > 100 µM | TGI (TK-10 renal): > 100 µM | TGI (PC-3 prostate): > 100 µM | TGI (HS 578T breast): > 100 µM | TGI (786-0 renal): > 100 µM | TGI (NCI-H23 lung): > 100 µM | TGI (MCF7 breast): > 100 µM | TGI (KM12 colon): > 100 µM | TGI (A498 renal): > 100 µM | TGI (ACHN renal): > 100 µM | TGI (SN12C renal): > 100 µM | TGI (EKVX NSCLC): > 100 µM

Cc1c(CCOC=O)c(=O)[nH]c2nncn12
TGI (MDA-MB-435): > 100 µM | TGI (SK-MEL-28 melanoma): > 100 µM | TGI (MDA-MB-231 breast): > 100 µM | TGI (A549 NSCLC): > 100 µM | TGI (SNB-19 CNS): > 100 µM | TGI (NCI/ADR-RES ovarian): > 100 µM | TGI (NCI-H226 lung): > 100 µM | TGI (M14 melanoma): > 100 µM | TGI (SR leukemia): > 100 µM | TGI (SW-620 colon): > 100 µM | TGI (SF-295 CNS): > 100 µM | TGI (IGROV1 ovarian): > 100 µM | TGI (SF-268 CNS): > 100 µM | TGI (OVCAR-5 ovarian): > 100 µM | TGI (UACC-257 melanoma): > 100 µM | TGI (MDA-N): > 100 µM | TGI (SNB-75 CNS): > 100 µM | TGI (UACC-62 melanoma): > 100 µM | TGI (SK-MEL-5 melanoma): > 100 µM | TGI (DU-145 prostate): > 100 µM | TGI (HCC-2998 colon): > 100 µM | TGI (HCT-15 colon): > 100 µM | TGI (T-47D breast): > 100 µM | TGI (NCI-H460 lung): > 100 µM | TGI (HCT-116 colon): > 100 µM | TGI (RPMI-8226 leukemia): > 100 µM | TGI (NCI-H522 lung): > 100 µM | TGI (MOLT-4 leukemia): > 100 µM | TGI (OVCAR-8 ovarian): > 100 µM | TGI (SK-OV-3 ovarian): > 100 µM | TGI (RXF 393 renal): > 100 µM | TGI (MALME-3M melanoma): > 100 µM | TGI (HL-60(TB) leukemia): > 100 µM | TGI (HT29 colon): > 100 µM | TGI (UO-31 renal): > 100 µM | TGI (SF-539 CNS): > 100 µM | TGI (LOX IMVI melanoma): > 100 µM | TGI (CCRF-CEM leukemia): > 100 µM | TGI (U251 CNS): > 100 µM | TGI (BT-549 breast): > 100 µM | TGI (K-562 leukemia): > 100 µM | TGI (OVCAR-3 ovarian): > 100 µM | TGI (HOP-92 NSCLC): > 100 µM | TGI (OVCAR-4 ovarian): > 100 µM | TGI (COLO 205 colon): > 100 µM | TGI (HOP-62 NSCLC): > 100 µM | TGI (TK-10 renal): > 100 µM | TGI (PC-3 prostate): > 100 µM | TGI (HS 578T breast): > 100 µM | TGI (786-0 renal): > 100 µM | TGI (NCI-H23 lung): > 100 µM | TGI (MCF7 breast): > 100 µM | TGI (KM12 colon): > 100 µM | TGI (A498 renal): > 100 µM | TGI (ACHN renal): > 100 µM | TGI (SN12C renal): > 100 µM | TGI (EKVX NSCLC): > 100 µM
